9 compounds from ChEMBL document CHEMBL1201862, “PubChem BioAssay data set” (2004) can be followed below.

A short description of series [1]: HepG2 cell cytotoxicity, dose response, cytotoxicity control, ATP luminescence, cherry-pick, activator set 2 (AID 1053143). Type of series: functional, cell-based.
The next series addresses Mu-type opioid receptor (Homo sapiens, UniProt P35372). The experiment in a line: Counterscreen for agonists of heterodimerization of the mu 1 (OPRM1) and delta 1 (OPRD1) opioid receptors: Luminescence-based cell-based high throughput dose response assay to identify agonists of OPRM1 homodimerization. It counts as functional. On the technique in general: Counterscreens check selectivity or assay interference.

Series [2] has as its target Delta-type opioid receptor (Homo sapiens, UniProt P41143). The experiment in a line: Counterscreen for agonists of heterodimerization of the mu 1 (OPRM1) and delta 1 (OPRD1) opioid receptors: Luminescence-based cell-based high throughput dose response assay to identify agonists of OPRD1 homodimerization. [Related pubchem assays (depositor defined):AID504326, AID504355, AID504692, AID504904, AID504905]. It counts as functional.

Series [3] has as its system Vero. Description: cells. Type of series: functional. The settings on record: Chlorocebus sabaeus.
Series [4] deals with 5-hydroxytryptamine receptor 5A (Homo sapiens, UniProt P47898). The experiment in a line: Counterscreen for agonists of OPRM1-OPRD1 heterodimerization: luminescence-based cell-based high throughput dose response assay to identify agonists of 5-hydroxytryptamine (serotonin) 5A receptor (HTR5A). [Related pubchem assays (depositor defined):AID504326, AID504355, AID504692, AID504904, AID504905]. It counts as functional.
Sequence of 5-hydroxytryptamine receptor 5A (P47898 whole entry): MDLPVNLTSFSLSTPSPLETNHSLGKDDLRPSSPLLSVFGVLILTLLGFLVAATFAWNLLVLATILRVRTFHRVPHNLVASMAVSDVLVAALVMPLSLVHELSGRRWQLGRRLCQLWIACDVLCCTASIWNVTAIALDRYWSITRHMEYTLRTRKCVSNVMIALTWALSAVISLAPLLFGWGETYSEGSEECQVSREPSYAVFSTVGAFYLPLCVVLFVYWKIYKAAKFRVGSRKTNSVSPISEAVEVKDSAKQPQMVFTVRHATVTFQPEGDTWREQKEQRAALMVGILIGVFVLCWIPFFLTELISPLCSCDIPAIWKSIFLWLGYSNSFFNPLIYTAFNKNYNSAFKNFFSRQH

Series [5] deals with Vero. Description: cells. Particulars: Chlorocebus sabaeus. It counts as functional, cell-based.
For a further series, the target named is Cytochrome P450 2C9 (Homo sapiens, UniProt P11712).
Sequence of Cytochrome P450 2C9 (P11712 whole entry): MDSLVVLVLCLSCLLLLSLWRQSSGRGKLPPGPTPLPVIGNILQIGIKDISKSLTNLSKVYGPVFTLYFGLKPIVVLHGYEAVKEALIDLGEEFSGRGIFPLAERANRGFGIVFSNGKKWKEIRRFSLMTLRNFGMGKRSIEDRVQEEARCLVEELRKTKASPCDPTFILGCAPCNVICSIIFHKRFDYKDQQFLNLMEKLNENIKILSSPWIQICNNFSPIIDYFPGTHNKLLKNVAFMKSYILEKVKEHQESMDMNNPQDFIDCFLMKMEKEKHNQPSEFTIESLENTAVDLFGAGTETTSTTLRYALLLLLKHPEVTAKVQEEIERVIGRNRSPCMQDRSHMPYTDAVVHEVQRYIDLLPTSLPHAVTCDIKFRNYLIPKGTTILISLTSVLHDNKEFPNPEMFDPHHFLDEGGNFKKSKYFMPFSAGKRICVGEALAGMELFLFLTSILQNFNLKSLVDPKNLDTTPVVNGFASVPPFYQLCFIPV
The target of a further series is T1, Cytochrome P450 1A2 (Homo sapiens, UniProt P05177).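 Also: PubChem cytochrome P450 panel assay, CYP1A2 panel member.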
T1 sequence (P05177 whole entry): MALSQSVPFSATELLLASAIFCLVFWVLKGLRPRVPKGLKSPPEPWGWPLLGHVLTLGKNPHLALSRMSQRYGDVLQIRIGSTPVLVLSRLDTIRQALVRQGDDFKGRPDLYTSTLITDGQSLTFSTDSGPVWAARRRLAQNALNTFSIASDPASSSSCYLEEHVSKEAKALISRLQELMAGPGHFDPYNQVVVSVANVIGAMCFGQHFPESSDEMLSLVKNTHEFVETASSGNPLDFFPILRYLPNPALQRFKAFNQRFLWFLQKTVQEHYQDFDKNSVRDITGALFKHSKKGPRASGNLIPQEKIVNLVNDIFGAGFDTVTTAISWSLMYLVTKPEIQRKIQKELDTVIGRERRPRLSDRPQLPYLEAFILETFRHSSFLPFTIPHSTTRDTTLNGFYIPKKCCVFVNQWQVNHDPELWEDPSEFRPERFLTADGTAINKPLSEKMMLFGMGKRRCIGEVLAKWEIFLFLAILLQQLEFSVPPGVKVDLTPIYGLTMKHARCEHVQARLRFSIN

The target of series [6] is T2, CAAX prenyl protease 2 (Saccharomyces cerevisiae S288c, UniProt Q03530).
T2 sequence (Q03530 whole entry): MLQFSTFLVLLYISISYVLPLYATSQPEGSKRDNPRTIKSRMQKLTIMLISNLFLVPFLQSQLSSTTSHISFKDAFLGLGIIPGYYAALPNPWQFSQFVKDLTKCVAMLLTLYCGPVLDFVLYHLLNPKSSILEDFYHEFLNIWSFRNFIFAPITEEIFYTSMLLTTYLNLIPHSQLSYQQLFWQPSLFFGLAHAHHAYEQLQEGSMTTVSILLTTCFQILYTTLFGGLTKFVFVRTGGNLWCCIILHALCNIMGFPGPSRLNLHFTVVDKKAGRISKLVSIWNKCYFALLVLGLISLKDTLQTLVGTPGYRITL
Type of series: biochemical.

The target in the next series is CAAX prenyl protease 1 (Saccharomyces cerevisiae S288c, UniProt P47154). Description: Ste24 protease inhibitors, dose response, biochemical, S. cerevisiae, plate reader, cherry-pick (AID 488815).
Sequence of CAAX prenyl protease 1 (P47154 whole entry): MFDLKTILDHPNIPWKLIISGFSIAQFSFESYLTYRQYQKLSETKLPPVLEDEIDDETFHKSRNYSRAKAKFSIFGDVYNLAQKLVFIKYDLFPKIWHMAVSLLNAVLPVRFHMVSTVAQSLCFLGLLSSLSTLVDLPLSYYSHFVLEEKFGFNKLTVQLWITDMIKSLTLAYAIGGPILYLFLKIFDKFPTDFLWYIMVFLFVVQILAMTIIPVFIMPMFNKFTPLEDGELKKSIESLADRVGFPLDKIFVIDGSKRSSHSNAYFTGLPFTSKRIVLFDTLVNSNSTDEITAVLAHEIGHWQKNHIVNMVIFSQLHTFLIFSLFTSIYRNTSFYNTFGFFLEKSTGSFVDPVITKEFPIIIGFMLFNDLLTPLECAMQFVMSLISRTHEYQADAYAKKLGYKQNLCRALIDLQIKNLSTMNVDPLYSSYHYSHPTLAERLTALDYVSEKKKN
The target in series [7] is T3, Microphthalmia-associated transcription factor (Homo sapiens, UniProt O75030).
T3 sequence (O75030 whole entry): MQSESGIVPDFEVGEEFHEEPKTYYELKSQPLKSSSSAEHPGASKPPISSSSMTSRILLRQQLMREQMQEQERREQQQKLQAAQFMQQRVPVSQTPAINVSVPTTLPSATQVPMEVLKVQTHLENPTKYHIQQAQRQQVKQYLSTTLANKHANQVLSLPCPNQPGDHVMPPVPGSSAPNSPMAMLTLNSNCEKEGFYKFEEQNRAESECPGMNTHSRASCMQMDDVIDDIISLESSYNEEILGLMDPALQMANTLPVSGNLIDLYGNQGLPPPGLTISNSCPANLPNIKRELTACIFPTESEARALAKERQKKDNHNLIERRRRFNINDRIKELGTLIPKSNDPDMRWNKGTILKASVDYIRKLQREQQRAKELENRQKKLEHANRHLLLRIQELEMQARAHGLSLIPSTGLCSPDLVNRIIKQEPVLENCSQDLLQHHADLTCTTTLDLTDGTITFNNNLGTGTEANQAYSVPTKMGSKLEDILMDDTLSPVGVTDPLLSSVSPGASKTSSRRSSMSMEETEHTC
Description: TRPM1 promoter luciferase signal decrease, dose response, MITF inhibitor project, cell-based, SK-MEL-5, cherry-picked, set 3 (AID 493073).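 Also: SK-MEL-5 melanoma cells with luciferase driven by the MITF target TRPM1 promoter.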 It counts as functional.

Series [8] concerns A-375. Description: A375 melanoma cell viability reduction, dose response, counter-screen for MITF modulator project, cherry-pick samples, set 2 (AID 540335). Type of series: functional, cell-based. The settings on record: Homo sapiens.
Series [9] has as its target CAAX prenyl protease 2 (Homo sapiens, UniProt Q9Y256). The experiment in a line: human Rce1 protease inhibitors, dose response, biochemical, yeast membranes, quenched-peptide fluorescence, cherry-pick (AID 588849).
Series [10] in a line: growth suppression of beta-catenin-knockout colon cells, dose response, cell-based, HCT116, human colon tumor (AID 1045).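 Also: HCT116 colon tumor cells with beta catenin knocked out; cells exposed to compound for 60 hours.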 It counts as functional.
The target in series [11] is Heat shock protein HSP 90-alpha (Homo sapiens, UniProt P07900). It counts as functional, organism-based.
Series [12] is described as follows: growth suppression of PTEN-null colon cells, dose response, cell-based, HCT116 PTEN knockout (AID 1047).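 Also: HCT116 colon tumor cells with PTEN knocked out; cells exposed to compound for 60 hours before readout; potency for loss of cell viability measured by luminescence.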 It counts as functional.
Series [13] has as its system A-375. Description: MITF: Counter assay: A375 proliferation Measured in Cell-Based System Using Plate Reader - 2084-03_Inhibitor_Dose_DryPowder_Activity. [Related pubchem assays (depositor defined):AID488944]. Type of series: functional. The settings on record: Homo sapiens.
The nature of series [14]: cytotoxicity toward NIH3T3 fibroblasts, dose response, counter-screen, cell-based, ATP luminescence, mouse fibroblasts (AID 2010).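 Also: cells exposed to compound for about 90 hours before reading.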 It counts as functional.
A short description of series [15]: Shn3 3'UTR reporter inhibitors, dose response, cell-based, Clone20 osteoblasts, firefly luciferase, cherry-picked (AID 624132).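 Also: firefly luciferase luminescence from reporter carrying the Shn3 3'UTR in osteoblasts.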 It counts as functional.
Series [16] is described as follows: inhibitors of intracellular T. cruzi replication, confirmation, NIH3T3 host cells, beta-gal luminescence (AID 2044).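 Also: intracellular parasites grown in NIH/3T3 mouse fibroblasts as host cells; luminescent beta-galactosidase reporter signal from transgenic T. cruzi replicating inside host cells; inhibitors lower the luminescence signal.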 Type of series: functional, cell-based.
The nature of series [17]: HepG2 cell cytotoxicity, dose response, cytotoxicity control for Shn3 inhibitor project, CellTiter-Glo, cherry-picked (AID 624134). Type of series: functional, cell-based. On the technique in general: In ATP-based viability assays light output follows the ATP content of the culture.
The next series deals with Beta-galactosidase (Escherichia coli, UniProt Q8VNN2). Description: PubChem AID 485352. Type of series: functional.
Sequence of Beta-galactosidase (Q8VNN2 whole entry): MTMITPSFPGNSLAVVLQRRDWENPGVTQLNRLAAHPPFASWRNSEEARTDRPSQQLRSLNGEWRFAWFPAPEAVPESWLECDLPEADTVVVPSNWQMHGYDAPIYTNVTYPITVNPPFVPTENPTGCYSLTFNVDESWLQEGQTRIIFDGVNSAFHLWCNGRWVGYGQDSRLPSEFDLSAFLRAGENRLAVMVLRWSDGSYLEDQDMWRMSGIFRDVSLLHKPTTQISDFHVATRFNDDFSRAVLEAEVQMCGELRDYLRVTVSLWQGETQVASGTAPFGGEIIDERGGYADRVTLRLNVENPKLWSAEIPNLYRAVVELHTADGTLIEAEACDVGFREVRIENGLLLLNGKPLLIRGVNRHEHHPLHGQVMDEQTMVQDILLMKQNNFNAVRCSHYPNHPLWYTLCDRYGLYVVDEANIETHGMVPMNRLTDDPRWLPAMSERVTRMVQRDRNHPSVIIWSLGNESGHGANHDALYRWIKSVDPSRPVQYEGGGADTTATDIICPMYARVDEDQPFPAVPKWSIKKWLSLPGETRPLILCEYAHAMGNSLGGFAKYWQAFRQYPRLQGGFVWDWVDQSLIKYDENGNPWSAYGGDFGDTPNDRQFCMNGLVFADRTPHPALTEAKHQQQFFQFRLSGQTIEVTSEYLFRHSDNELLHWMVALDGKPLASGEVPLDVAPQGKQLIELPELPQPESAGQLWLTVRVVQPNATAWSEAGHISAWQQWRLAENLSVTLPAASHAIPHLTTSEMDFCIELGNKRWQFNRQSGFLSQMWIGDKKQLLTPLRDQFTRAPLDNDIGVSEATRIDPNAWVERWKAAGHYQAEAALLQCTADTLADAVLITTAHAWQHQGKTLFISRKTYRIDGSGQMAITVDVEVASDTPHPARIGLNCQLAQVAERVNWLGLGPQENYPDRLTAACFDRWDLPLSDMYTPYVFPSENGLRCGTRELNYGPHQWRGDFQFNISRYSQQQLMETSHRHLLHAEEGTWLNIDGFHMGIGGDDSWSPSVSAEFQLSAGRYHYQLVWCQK
A short description of series [18]: Luminescence Cell-Based Dose Response HTS to Identify Inhibitors of 5'UTR Stem-Loop Driven Prion Protein mRNA Translation in H4 Neuroglioblastoma Cells. [Related pubchem assays: 1827 (Project Summary), 1813 (Primary HTS)]. It counts as functional.
Series [19] deals with T4, Short transient receptor potential channel 4 (Mus musculus, UniProt Q9QUQ5).
T4 sequence (Q9QUQ5 whole entry): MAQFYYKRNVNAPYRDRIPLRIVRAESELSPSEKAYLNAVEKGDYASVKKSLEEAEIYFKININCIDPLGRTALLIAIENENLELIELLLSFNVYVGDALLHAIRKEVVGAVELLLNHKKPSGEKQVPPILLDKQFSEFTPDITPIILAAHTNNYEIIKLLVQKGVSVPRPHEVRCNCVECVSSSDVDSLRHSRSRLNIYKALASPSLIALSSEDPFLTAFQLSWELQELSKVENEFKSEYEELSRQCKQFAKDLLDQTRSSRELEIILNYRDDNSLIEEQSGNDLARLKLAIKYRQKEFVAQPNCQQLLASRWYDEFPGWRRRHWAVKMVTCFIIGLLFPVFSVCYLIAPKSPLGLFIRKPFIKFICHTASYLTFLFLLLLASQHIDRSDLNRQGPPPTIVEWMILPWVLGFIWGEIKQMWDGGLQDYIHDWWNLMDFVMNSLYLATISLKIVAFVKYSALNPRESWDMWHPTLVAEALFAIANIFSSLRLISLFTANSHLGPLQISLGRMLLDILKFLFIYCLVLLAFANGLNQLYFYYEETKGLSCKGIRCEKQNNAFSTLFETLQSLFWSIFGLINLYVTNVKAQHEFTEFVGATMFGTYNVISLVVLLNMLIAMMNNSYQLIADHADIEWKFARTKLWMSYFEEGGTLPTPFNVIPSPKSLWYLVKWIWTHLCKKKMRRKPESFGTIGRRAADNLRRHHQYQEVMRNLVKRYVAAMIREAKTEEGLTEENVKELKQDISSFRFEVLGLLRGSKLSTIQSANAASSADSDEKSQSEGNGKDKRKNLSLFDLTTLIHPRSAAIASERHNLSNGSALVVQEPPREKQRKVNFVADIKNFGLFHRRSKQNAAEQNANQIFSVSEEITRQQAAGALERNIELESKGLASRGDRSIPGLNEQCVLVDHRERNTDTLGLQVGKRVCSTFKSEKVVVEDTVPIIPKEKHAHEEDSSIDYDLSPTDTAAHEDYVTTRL
Description: mouse TRPC4 channel activators, dose response, cell-based, HEK293 TRPC4/mu-opioid, Fluo-4 calcium (AID 434937). It counts as functional.

A short description of series [20]: inhibitors of firefly luciferase expression or activity, dose response, H4 neuroglioma cells, luminescence (AID 1990). It counts as functional, cell-based.
Series [21] has as its target Type-1 angiotensin II receptor (Homo sapiens, UniProt P30556). Description: AT1 receptor antagonists, dose response, selectivity assay for APJ receptor antagonist project, cell-based, uHTS hits (AID 463214).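 Also: antagonist potency against angiotensin II stimulated AT1 response.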 It counts as functional.
A short description of series [22]: inhibitors of SNCA 5'UTR-driven reporter translation, confirmation, H4 neuroglioma cells, luminescence (AID 1988). It counts as functional, cell-based.

Usually AC50 stands for the concentration giving half of the maximal activity seen. For orientation: EC50 means the concentration that produces a half-maximal response. For orientation: CC50 means the concentration that lowers cell viability or growth by half. Usually IC50 stands for the concentration needed to halve the response being measured.

SMILES strings stand for the structures. Active and inactive are the calls of the source. Where only a bound is given, the exact number is not on record here.

Sequence of Type-1 angiotensin II receptor (P30556 whole entry): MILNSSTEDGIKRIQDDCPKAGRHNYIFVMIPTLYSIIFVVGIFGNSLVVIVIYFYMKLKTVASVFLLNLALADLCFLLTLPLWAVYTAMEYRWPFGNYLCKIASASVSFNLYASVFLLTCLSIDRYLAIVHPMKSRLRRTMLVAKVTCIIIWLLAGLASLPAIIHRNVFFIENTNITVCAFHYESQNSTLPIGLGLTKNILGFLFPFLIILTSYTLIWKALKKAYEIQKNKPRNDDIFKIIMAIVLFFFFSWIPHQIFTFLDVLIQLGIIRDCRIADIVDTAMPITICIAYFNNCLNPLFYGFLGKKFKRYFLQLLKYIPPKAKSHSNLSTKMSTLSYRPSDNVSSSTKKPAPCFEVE
Sequence of Mu-type opioid receptor (P35372 whole entry): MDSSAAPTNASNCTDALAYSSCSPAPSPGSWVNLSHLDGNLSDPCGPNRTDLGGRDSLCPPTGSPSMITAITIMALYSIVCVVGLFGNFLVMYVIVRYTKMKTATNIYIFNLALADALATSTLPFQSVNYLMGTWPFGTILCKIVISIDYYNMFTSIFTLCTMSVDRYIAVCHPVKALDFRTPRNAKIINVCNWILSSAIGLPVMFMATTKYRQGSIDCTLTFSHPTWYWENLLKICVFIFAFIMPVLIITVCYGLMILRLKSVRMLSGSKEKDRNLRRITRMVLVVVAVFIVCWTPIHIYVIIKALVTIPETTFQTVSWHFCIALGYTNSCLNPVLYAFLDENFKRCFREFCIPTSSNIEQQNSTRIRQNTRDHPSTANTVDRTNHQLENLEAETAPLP
Sequence of CAAX prenyl protease 2 (Homo sapiens, UniProt Q9Y256) (Q9Y256 whole entry): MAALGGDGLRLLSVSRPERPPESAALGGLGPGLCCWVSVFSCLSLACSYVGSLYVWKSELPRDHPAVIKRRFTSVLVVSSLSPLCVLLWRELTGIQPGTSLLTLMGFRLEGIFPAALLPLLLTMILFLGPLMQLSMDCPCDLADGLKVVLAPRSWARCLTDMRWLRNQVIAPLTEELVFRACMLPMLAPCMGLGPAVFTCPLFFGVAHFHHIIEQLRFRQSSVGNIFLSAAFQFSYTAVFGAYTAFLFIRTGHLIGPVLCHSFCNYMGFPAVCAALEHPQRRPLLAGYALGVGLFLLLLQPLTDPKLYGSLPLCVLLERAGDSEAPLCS
Sequence of Delta-type opioid receptor (P41143 whole entry): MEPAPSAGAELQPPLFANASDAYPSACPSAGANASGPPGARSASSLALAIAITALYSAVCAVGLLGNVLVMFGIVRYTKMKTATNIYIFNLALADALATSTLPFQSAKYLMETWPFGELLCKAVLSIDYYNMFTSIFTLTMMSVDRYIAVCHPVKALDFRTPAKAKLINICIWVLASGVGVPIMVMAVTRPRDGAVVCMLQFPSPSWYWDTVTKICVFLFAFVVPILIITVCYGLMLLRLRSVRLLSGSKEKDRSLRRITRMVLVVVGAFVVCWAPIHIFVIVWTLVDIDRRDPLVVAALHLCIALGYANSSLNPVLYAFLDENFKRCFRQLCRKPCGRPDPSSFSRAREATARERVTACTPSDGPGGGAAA

Consider `CN1CCN(c2ccc(NC(=O)c3ccc(-c4ccccc4F)o3)cc2)CC1`, for which the AC50 in [1] is 26 µM (active). Moreover, the EC50 at Mu-type opioid receptor is 26.3 µM (inactive); in series [2] it was 32.6 µM (inactive); in [4], > 92.5 µM (inactive). In addition, the CC50 with Vero [3] is > 25 µM (active). The concentration for half-maximal inhibition (IC50) in the series on Vero [5] is 24.8 µM (active).

With `CS(=O)(=O)N1CCC2(CCN(c3ccccc3)CC2)CC1`, the AC50 result on Cytochrome P450 2C9 and on Cytochrome P450 1A2 was “inconclusive” each time.

As for `COc1cc2c(cc1OC)C(C)=NC1(CCCCC1)C2`, the AC50 on CAAX prenyl protease 2 [6] is 6.87 µM (active); at CAAX prenyl protease 1, 8.72 µM (active).

In the case of `CC(C)Oc1ccc(C(CCNCc2ccc(O)cc2)c2ccccc2)cc1` (stereo not given), the concentration at half-maximal activity (AC50) in series [7] is 12.8 µM (active); in the series with A-375 [8], 18.8 µM (active).

For the compound `COc1ccc(-c2c(C)oc3c(CN4CCN(C)CC4)c(O)ccc3c2=O)cc1`, the AC50 on CAAX prenyl protease 2 [9] was 3.72 µM (active); at CAAX prenyl protease 2 [6] it was 28.6 µM (active).

For the compound `O=C(/C=C/c1cccc([N+](=O)[O-])c1)c1cccs1`, the AC50 in series [7] was 15.3 µM (active); with A-375 [8], > 35 µM (active); in series [11], 4.16 µM (active); with A-375 [13], > 35 µM (active). For the same compound, the concentration giving a half-maximal response (EC50) was 10.9 µM (active) in series [10] and 14.3 µM (active) in [12].

On to `Cc1ccc(-n2cc(CNCCCn3ccnc3C)c(-c3ccc(F)cc3)n2)cc1`, for which the AC50 was 7.58 µM (active) in [7], 20.6 µM (active) in series [15], 16.7 µM (active) in series [17] and 21.2 µM (active) with A-375 [13]. Moreover, the EC50 was 14.4 µM (active) in series [14] and 1.77 µM (active) in series [16].

As to `COc1ccccc1C(=O)NNC(=S)NC(=O)c1cccs1`, the EC50 at Beta-galactosidase is > 40 µM (inactive); in series [18] it was 13.2 µM (active); in series [19] it was 6.68 µM (active); in series [20] it was > 120 µM (not active); in series [22], > 120 µM (not active). Moreover, the AC50 in series [11] is 3.85 µM (active). Moreover, in [21], the IC50 is recorded as 20.4 µM (not active).

As to `CCOC(=O)C1=C(C)N=C2CC(c3cccs3)CC(O)=C2C1c1cccs1` (stereo not given), the 50% effective concentration (EC50) on Beta-galactosidase was 39.3 µM (active). Moreover, in series [21], the concentration for half-maximal inhibition (IC50) is given as 36 µM (not active).
